Columns and labels:
[1] = Oral bioavailability in BALB/c mouse at 20 mg/kg measured upto 24 hrs by LC-MS/MS analysis; type: ADME, organism-based; details: in vivo
[2] = AUC in BALB/c mouse at 20 mg/kg, po measured upto 24 hrs by LC-MS/MS analysis; type: ADME, organism-based; parameters: dose 20 mg/kg, time < 24 hr, route oral; details: in vivo
[3] = Cmax in BALB/c mouse at 20 mg/kg, po measured upto 24 hrs by LC-MS/MS analysis; type: ADME, organism-based; parameters: dose 20 mg/kg, route oral; details: in vivo
[4] = Half life in BALB/c mouse at 20 mg/kg, po measured upto 24 hrs by LC-MS/MS analysis; type: ADME, organism-based; details: in vivo
[5] = Ratio of AUC in BALB/c mouse brain to plasma at 20 mg/kg, po measured upto 24 hrs by LC-MS/MS analysis; type: ADME, organism-based; details: brain and plasma
[6] = Ratio of Cmax in BALB/c mouse brain to plasma at 20 mg/kg, po measured upto 24 hrs by LC-MS/MS analysis; type: ADME, organism-based; details: brain and plasma
[7] = Toxicity in Harlan Foxn1 nude mouse xenografted with rat RIE cells transfected with KIF5B/RET assessed as reduction in body weight at 30 to 60 mg/kg, po qd for 14 days; type: organism-based; details: in vivo, 336 h
[8] = Toxicity in Harlan Foxn1 nude mouse xenografted with rat RIE cells transfected with KIF5B/RET assessed as reddish mottled appearance of lungs at 30 to 60 mg/kg, po qd for 14 days; type: organism-based; details: in vivo, 336 h
[9] = Toxicity in Harlan Foxn1 nude mouse xenografted with rat RIE cells transfected with KIF5B/RET assessed as lung collapse at 30 to 60 mg/kg, po qd for 14 days; type: organism-based; details: in vivo, 336 h
[10] = Toxicity in Harlan Foxn1 nude mouse xenografted with rat RIE cells transfected with KIF5B/RET assessed as signs of hemorrhaging at 30 to 60 mg/kg, po qd for 14 days; type: organism-based; details: in vivo, 336 h
[11] = Toxicity in Harlan Foxn1 nude mouse xenografted with rat RIE cells transfected with KIF5B/RET at 10 mg/kg, po qd for 14 days; type: organism-based; details: in vivo, 336 h
[12] = Toxicity in Harlan Foxn1 nude mouse xenografted with rat RIE cells transfected with KIF5B/RET at 1 to 10 mg/kg, po qd for 10 days; type: organism-based; details: in vivo, 240 h
[13] = Toxicity in NSG mouse xenografted with human LC2/ad cells assessed as body weight loss at 10 mg/kg, po qd for 21 days measured following drug dosing termination on day 24; type: organism-based; details: in vivo, 504 h
[14] = Toxicity in NSG mouse xenografted with human LC2/ad cells assessed as necropsy in kidneys at 10 mg/kg, po qd for 21 days measured following drug dosing termination on day 24; type: organism-based; details: in vivo, 504 h
[15] = Drug uptake in plasma of Harlan Foxn1 nude mouse xenografted with rat RIE cells transfected with KIF5B/RET at 1 to 10 mg/kg, po qd for 10 days by LC-MS/MS analysis; type: ADME, organism-based; details: in vivo, 240 h

Structure (SMILES): COc1ccc(-c2cnn3c(N)c(-c4ccccc4)c(NC4CC(C)(C)N(C)C(C)(C)C4)nc23)cc1OC.Cl
- bioavailability [1]: 94%
- AUC at 24 h [2]: 12 µM·h
- Cmax [3]: 730 nM
- half-life [4]: 11 h
- Kp at 24 h [5]: 0.94
- Kp at 24 h [6]: 0.81
- Activity [7]: Toxic
- Activity [8]: Toxic
- Activity [9]: Toxic
- Activity [10]: Toxic
- Activity [11]: Non-Toxic
- Activity [12]: Non-Toxic
- Activity [13]: Toxic
- Activity [14]: Toxic
- Drug uptake [15]: Active
